From publication PMC12203862, “BroadAMP-GPT: AI-Driven generation of broad-spectrum antimicrobial peptides for combating multidrug-resistant ESKAPE pathogens” (Gut Microbes, 2025)
Values after ≈ are worked out from the molar mass of the structure shown. Residues, ends and D or L forms follow the SMILES beside them.

How the values were obtained:
[1] = MIC in the presence of 50% rabbit plasma; S. aureus, E. faecalis, S. suis, S. enteritis, K. pneumoniae
S. aureus ATCC 29213 = test: microbe, parasite or virus in culture; type: cell-based; details: ATCC 29213
trypsin = trypsin 10 μg/mL, 37℃, 1 h, then MIC
Procedure: (§1) To understand stability of peptide under different pH conditions, AMP solutions were prepared at different pH values (pH = 2, 4, 6, 8, 10, and 12) and then incubated at room temperature for 1 h. For the temperature stability, AMP solutions were incubated at 20, 25, 40, 60, 80, and 100℃ for 1 h. For the protease stability, AMP solutions were incubated with pepsin, trypsin, and proteinase K at different concentration of 10 μg/mL at 37℃ for 1 h.[52],[53] After incubation, the MIC values peptides were determined using the MIC experimental protocol.

pepsin = pepsin 10 μg/mL, 37℃, 1 h, then MIC
Procedure: as §1

proteinase K = proteinase K (Parengyodontium album, UniProt P06873); test: Protease stability by MIC change; type: in vitro ADME; details: proteinase K 10 μg/mL, 37℃, 1 h, then MIC
Caco-2 = test: Cytotoxicity, CCK-8; type: cell-based, human
Procedure: (§2) The cytotoxicity of selected AMPs to human laryngeal carcinoma epithelial cell (HEp-2) and colorectal adenocarcinoma cell (Caco-2) lines was evaluated using the CCK-8 method as previously described.[55] The cells were cultured in high-glucose dulbecco’s modified eagle medium (DMEM) supplemented with 10% fetal bovine serum (FBS) and 1% penicillin-streptomycin. Cells were inoculated in 96-well sterile microtiter plate at 5000 cells/100 μL. After cultured (37℃, 5%CO2) for 24 h, cells were treated with AMPs at concentrations ranging from 8 to 128 μg/mL for another 48 h. Afterward, the culture medium was replaced by fresh DMEM medium containing 10% CCK-8 and incubated for 1 h. The absorbance of the solution was measured at 450 nm by a microplate reader. Cell viability was calculated as: % cell viability = [(Abssample - Absblank)/(Absnegative - Absblank)]×100%. Each experiment was carried out with three replicates.

HEp-2 = test: Cytotoxicity, CCK-8; type: cell-based, human
Procedure: as §2

mouse red blood cells = test: Haemolysis assay; type: cell-based
Procedure: Red blood cells (RBCs) from Kunming mice were used to evaluate the hemolytic toxicity of the selected AMPs. Fresh red blood cells were collected from mice and washed until the supernatant was completely cleared. Added 19-fold volume of PBS to prepare 2% RBC suspension. […] Afterward, the mixture was centrifuged at 1500 rpm for 10 min. Then transferred 30 µL supernatant to 96-well plate containing 70 µL PBS. The absorbance of the sample was measured at 450 nm by a microplate reader. PBS and 2% Triton X-100 was used as negative and positive control, respectively. The experiment was performed in triplicate and the hemolysis activity was calculated by the formula hemolysis = [(Absorbancesample- AbsorbancePBS)/(AbsorbanceTriton x-100-AbsorbancePBS)]×100%.

[2] = system: S. aureus clinical isolates (n = 40); type: cell-based
Procedure: (§3) Bacterial strains and growth conditions: All Gram-negative and Gram-positive bacterial strains (Supplementary Table S8) were cultured in Luria-Bertani (LB) or trypticase soy broth (TSB) agar plates, respectively, and incubated overnight at 37 °C unless specifically indicated. A single colony of the tested bacterial strains was inoculated into medium broth with shaking at 220 rpm for further experiments.
(§4) Minimal inhibitory concentrations: Antimicrobial susceptibility testing was performed by broth microdilution method for AMPs against Gram-positive and Gram-negative pathogens above mentioned, following the methods of document CLSI M100-ED34.[43] The MICs were defined as the lowest concentrations that inhibit visible growth of the tested bacteria. E. coli ATCC 25,922 and S. aureus ATCC 29,213 were served as quality controls.

[3] = system: four Gram-positive and five Gram-negative bacteria, including ESKAPE pathogens; type: cell-based
Procedure: as §3, §4

S. enteritis S1 = test: organism not typed; type: cell-based
Procedure: as §3, §4

A. baumannii 7979 = test: microbe, parasite or virus in culture; type: cell-based; details: 7979
Procedure: as §3, §4

E. faecalis JH2-2 = test: microbe, parasite or virus in culture; type: cell-based; details: JH2-2
Procedure: as §3, §4

P. aeruginosa PAO1 = test: microbe, parasite or virus in culture; type: cell-based; details: PAO1
Procedure: as §3, §4

S. suis SH0918 = test: microbe, parasite or virus in culture; type: cell-based
Procedure: as §3, §4

S. aureus YZSA-21 = test: microbe, parasite or virus in culture; type: cell-based; details: YZSA-21
Procedure: as §3, §4

E. faecium QF31 = test: microbe, parasite or virus in culture; type: cell-based; details: QF31
Procedure: as §3, §4

E. faecium HFY01 = test: microbe, parasite or virus in culture; type: cell-based; details: HFY01
Procedure: as §3, §4

S. pyogenes DL02 = test: microbe, parasite or virus in culture; type: cell-based; details: DL02
Procedure: as §3, §4

K. pneumoniae 9-1 = test: microbe, parasite or virus in culture; type: cell-based; details: 9-1
Procedure: as §3, §4

P. aeruginosa PA14 = test: microbe, parasite or virus in culture; type: cell-based; details: PA14
Procedure: as §3, §4

S. agalactiae DL03 = test: microbe, parasite or virus in culture; type: cell-based; details: DL03
Procedure: as §3, §4

E. faecalis ES01 = test: microbe, parasite or virus in culture; type: cell-based; details: ES01
Procedure: as §3, §4

S. aureus M92-1 = test: microbe, parasite or virus in culture; type: cell-based; details: M92-1
Procedure: as §3, §4

S. aureus YZSA-15 = test: microbe, parasite or virus in culture; type: cell-based; details: YZSA-15
Procedure: as §3, §4

S. aureus YZSA-24 = test: microbe, parasite or virus in culture; type: cell-based; details: YZSA-24
Procedure: as §3, §4

E. faecalis SF23-1 = test: microbe, parasite or virus in culture; type: cell-based; details: SF23-1
Procedure: as §3, §4

E. faecium MC38 = test: microbe, parasite or virus in culture; type: cell-based; details: MC38
Procedure: as §3, §4

S. aureus M147-2 = test: microbe, parasite or virus in culture; type: cell-based; details: M147-2
Procedure: as §3, §4

E. faecalis J2 = test: microbe, parasite or virus in culture; type: cell-based; details: J2
Procedure: as §3, §4

E. coli ATCC 25922 = test: microbe, parasite or virus in culture; type: cell-based; details: ATCC 25922
Procedure: as §3, §4

chymotrypsin = details: 1 h, then MIC
S. suis P1/7 = test: microbe, parasite or virus in culture
Procedure: as §3
as §4, with “bacteria.” for “bacteria. E. coli ATCC 25,922 and S. aureus ATCC 29,213 were served as quality controls.”

Chain of proteinase K (P06873 106-384): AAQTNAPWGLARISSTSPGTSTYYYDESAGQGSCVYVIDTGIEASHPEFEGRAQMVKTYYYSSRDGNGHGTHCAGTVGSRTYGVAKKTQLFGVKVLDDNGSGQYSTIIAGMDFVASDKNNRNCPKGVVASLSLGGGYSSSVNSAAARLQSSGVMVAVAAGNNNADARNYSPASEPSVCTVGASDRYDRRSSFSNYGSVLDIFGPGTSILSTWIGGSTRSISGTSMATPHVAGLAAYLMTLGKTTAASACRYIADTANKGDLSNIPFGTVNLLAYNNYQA

CC[C@H](C)[C@H](NC(=O)[C@H](C)NC(=O)[C@H](CCC(N)=O)NC(=O)[C@H](Cc1c[nH]c2ccccc12)NC(=O)[C@H](C)N)C(=O)N[C@@H](C)C(=O)N[C@@H](CCCNC(=N)N)C(=O)N[C@@H](CC(C)C)C(=O)N[C@H](C(=O)N[C@@H](CCCCN)C(=O)NCC(=O)N[C@@H](CCCNC(=N)N)C(=O)NCC(=O)N[C@@H](CCCNC(=N)N)C(=O)N[C@@H](CCCCN)C(=O)N[C@@H](CCCCN)C(=O)N[C@@H](Cc1ccc(O)cc1)C(=O)NCC(=O)N[C@@H](CCCNC(=N)N)C(=O)N[C@H](C(=O)N[C@H](C(=O)N[C@H](C(=O)N[C@H](C(=O)NCC(=O)O)[C@@H](C)CC)[C@@H](C)CC)[C@@H](C)CC)[C@@H](C)CC)[C@@H](C)CC [AMP_S13] (H-AWQAIARLIKGRGRKKYGRIIIIG-OH)
antimicrobial activity in plasma [1]: remained effective
MIC (S. aureus ATCC 29213): 8 µg/mL (≈ 2.92 µM)
antimicrobial activity (MIC) after protease incubation (trypsin): maintained its activity
antimicrobial activity (MIC) after protease incubation (pepsin): maintained its activity
antimicrobial activity (MIC) after protease incubation (proteinase K): only a two-fold decrease in MIC
CC50 (Caco-2; 48 h): 1011 µg/mL (≈ 369 µM)
CC50/MIC (Caco-2; Caco-2, MIC values against S. aureus ATCC 29213): 126.38
CC50 (HEp-2; 48 h): 353.3 µg/mL (≈ 129 µM)
CC50/MIC (HEp-2; HEp-2, MIC values against S. aureus ATCC 29213): 44.16
HC50/MIC (mouse red blood cells; MIC values against S. aureus ATCC 29213): 116.08
HC50 (mouse red blood cells; mouse red blood cells, 37℃, 1 h): 928.6 µg/mL
MICs, range over clinical isolates [2]: 4 to 32 µg/mL
MIC values, range [3]: 2 to 16 µg/mL
MICs, range over panel [3]: 2 to 16 µg/mL
MIC (S. enteritis S1): 16 µg/mL (≈ 5.84 µM)
MIC (A. baumannii 7979): 2 µg/mL (≈ 0.73 µM)
MIC (E. faecalis JH2-2): 8 µg/mL (≈ 2.92 µM)
MIC (P. aeruginosa PAO1): 8 µg/mL (≈ 2.92 µM)
MIC (S. suis SH0918): 4 µg/mL (≈ 1.46 µM)
MIC (S. aureus YZSA-21): 8 µg/mL (≈ 2.92 µM)
MIC (E. faecium QF31): 4 µg/mL (≈ 1.46 µM)
MIC (E. faecium HFY01): 4 µg/mL (≈ 1.46 µM)
MIC (S. pyogenes DL02): 4 µg/mL (≈ 1.46 µM)
MIC (K. pneumoniae 9-1): 16 µg/mL (≈ 5.84 µM)
MIC (P. aeruginosa PA14): 8 µg/mL (≈ 2.92 µM)
MIC (S. agalactiae DL03): 4 µg/mL (≈ 1.46 µM)
MIC (E. faecalis ES01): 4 µg/mL (≈ 1.46 µM)
MIC (S. aureus M92-1): 8 µg/mL (≈ 2.92 µM)
MIC (S. aureus YZSA-15): 8 µg/mL (≈ 2.92 µM)
MIC (S. aureus YZSA-24): 16 µg/mL (≈ 5.84 µM)
MIC (E. faecalis SF23-1): 8 µg/mL (≈ 2.92 µM)
MIC (E. faecium MC38): 4 µg/mL (≈ 1.46 µM)
MIC (S. aureus M147-2): 8 µg/mL (≈ 2.92 µM)
MIC (E. faecalis J2): 8 µg/mL (≈ 2.92 µM)
MIC (E. coli ATCC 25922): 8 µg/mL (≈ 2.92 µM)
antimicrobial activity (MIC) after protease incubation (chymotrypsin): maintained its activity
MIC (S. suis P1/7): 4 µg/mL (≈ 1.46 µM)
